Test results taken from patent US20240261319A1, “ANTI-FUNGAL COMPOSITION DERIVED FROM HESPERALOE” (Kimberly-Clark Worldwide, Inc., priority 2021, published 2024).
≈ marks a conversion by molar mass, not a printed value.

System: Candida albicans
Test: Minimum inhibitory concentration (MIC) testing, two-fold broth dilution in YPD, OD620
Assay type: cell-based
Conditions: C. albicans (ATCC) in YPD broth, two-fold dilutions starting at 200, 30° C., 18-24 hours
Description: Candida albicans, was purchased from ATCC. Thirty-five samples derived from KC Hesperaloe funifera, crude extracts and selected fractions (Table 1) were screened for the inhibition of growth of candida.
Minimum inhibitory concentration (MIC) testing was performed. Two-fold dilutions of sample prepared in C. albicans growth medium (Yeast Peptone Dextrose, YPD) broth, starting at 200 µg/mL. Then inoculum added and incubated at 30° C. for 18-24 hours, and OD620 was determined. T-test was used to determine statistically significant decreases in growth ([…]). Controls included Ketoconazole (50 µg/mL, Keto50), Neg (media with DMSO only, no inoculum), Pos (media with DMSO and inoculum), and YPD (broth only). In wells with decreased growth, wells were mixed by pipetting, and […] samples were plated on YPD agar to determine whether viable C. albicans were present, as an estimation of minimum fungicidal concentration (MFC).

MIC: 25 mg/mL (≈ 47 mM)
Compound: CC(=O)N1CCN(c2ccc(OCC3COC(Cn4ccnc4)(c4ccc(Cl)cc4Cl)O3)cc2)CC1 (stereo not shown) [Ketoconazole]
